Source: ChEMBL document CHEMBL1156218, “The development and validation of a novel virtual screening cascade protocol to identify potential serotonin 5-HT(7)R antagonists” (Bioorg Med Chem Lett, 2010)

What was measured:
[1] = target: T1, 5-hydroxytryptamine receptor 7 (Homo sapiens, UniProt P34969); experiment: Displacement of [3H]5CT from 5HT7 receptor
[2] = target: T1, 5-hydroxytryptamine receptor 7; experiment: Displacement of [3H]5CT from 5HT7 receptor at 0.1 uM
[3] = target: T2, 5-hydroxytryptamine receptor 1A (Homo sapiens, UniProt P08908); experiment: Binding affinity at 5HT1A receptor
T2 sequence (P08908 whole entry): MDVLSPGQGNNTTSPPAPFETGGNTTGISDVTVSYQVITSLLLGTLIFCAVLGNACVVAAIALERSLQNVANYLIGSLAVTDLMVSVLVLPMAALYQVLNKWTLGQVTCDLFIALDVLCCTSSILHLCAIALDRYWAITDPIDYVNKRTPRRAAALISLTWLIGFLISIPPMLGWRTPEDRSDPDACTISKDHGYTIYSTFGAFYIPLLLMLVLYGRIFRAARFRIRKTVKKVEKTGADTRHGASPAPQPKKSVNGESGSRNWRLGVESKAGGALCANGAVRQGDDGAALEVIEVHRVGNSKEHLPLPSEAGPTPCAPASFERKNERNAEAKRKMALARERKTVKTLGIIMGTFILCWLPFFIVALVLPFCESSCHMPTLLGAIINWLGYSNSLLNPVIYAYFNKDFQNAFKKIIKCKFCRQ

[4] = target: T1, 5-hydroxytryptamine receptor 7; experiment: Displacement of [3H]5CT from 5HT7 receptor at 1 uM

T1 sequence (P34969 whole entry): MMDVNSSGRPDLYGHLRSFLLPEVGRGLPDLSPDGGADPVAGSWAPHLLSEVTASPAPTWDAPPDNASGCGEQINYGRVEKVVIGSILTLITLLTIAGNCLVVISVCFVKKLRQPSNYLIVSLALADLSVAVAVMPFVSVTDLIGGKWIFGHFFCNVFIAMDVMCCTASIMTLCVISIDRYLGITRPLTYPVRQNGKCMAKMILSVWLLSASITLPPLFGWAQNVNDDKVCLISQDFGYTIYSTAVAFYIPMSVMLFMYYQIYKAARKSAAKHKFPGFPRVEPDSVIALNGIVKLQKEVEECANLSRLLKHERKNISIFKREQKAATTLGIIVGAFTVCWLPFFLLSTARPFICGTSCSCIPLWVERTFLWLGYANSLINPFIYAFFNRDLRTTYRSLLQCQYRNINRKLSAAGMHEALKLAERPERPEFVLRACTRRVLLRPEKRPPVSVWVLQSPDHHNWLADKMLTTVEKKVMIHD

## OC(CNCC1COc2ccccc2O1)COc1ccccc1F (centres undefined)
[1]; read-out: Ki
  Ki: 197 nM
[2]
  Activity: 29%
[3]
  Ki: 8 nM
[4]
  Activity: 75%

## O=C1Nc2cccc3c2[C@]1(CCCCN1CC=C(c2ccccc2)CC1)CCC3
[1]; read-out: pKi (converted)
  Ki: 2.14 nM

## OC(CNCC1COc2ccccc2O1)COCc1ccccc1Cl (centres undefined)
[1]; read-out: Ki
  Ki: 265 nM
[2]
  Activity: 23%
[3]
  Ki: 36 nM
[4]
  Activity: 67%
